The record followed here is patent US20260007679A1, “METHODS OF TREATING CANCER USING 3-(4-((4-(MORPHOLINOMETHYL)BENZYL)OXY)-1-OXOISOINDOLIN-2-YL)PIPERIDINE-2,6-DIONE” (Celgene Corporation, priority 2012, published 2026).

Experiment [1] addresses T1, endogeneous human CRBN (U266 extract) (Homo sapiens, UniProt Q96SW2).
T1 construct: endogenous in cells; host or cells: U266 human multiple myeloma cells (NP-40 lysate)
Kind of experiment: Thalidomide affinity bead competition assay. The experiment is classed as binding. Conditions: 3 μM. The procedure: Affinity beads coupled to a thalidomide acid analog were incubated with the U266 extracts and, after extensive washing of the beads, the bound proteins were eluted. CRBN binding to the thalidomide-coupled affinity beads was determined by quantitative CRBN immunoblot determination.

For experiment [2], the system named is NCI-H929 cells (Control, Revlimid-sensitive, parental). Kind of experiment: Proliferation and viability by 7-AAD staining. Type of experiment: cell-based. Conditions: Homo sapiens, NCI-H929, 120 h, read-out: IC50, proliferation.
Experiment [3] relates to purified primary human T cells stimulated using immobilized anti-CD3 antibody. Kind of experiment: T-cell costimulation, IL-2 production. The experiment is classed as cell-based. The procedure: CRBN ubiquitination was measured in HEK293T cells, which were transfected with an amino-terminal His-biotin-tagged CRBN construct, then preincubated with compounds for one hour followed by treatment with the MG132 proteasome inhibitor (to arrest degradation of ubiquitinated proteins). Cells were lysed and processed to measure CRBN ubiquitination by SDS-PAGE and immunoblot analysis using an anti-ubiquitin antibody. Cell proliferation studies were conducted in lenalidomide-sensitive and refractory multiple myeloma cells. […] T-cell costimulation was measured in purified primary human T cells stimulated using immobilized anti-CD3 antibody in cell culture for 2 days, and cytokine secretion was measured by ELISA.

In experiment [4] the test system is Revlimid-resistant NCI-H929 R2-10. Nature of the experiment: Proliferation and viability by 7-AAD staining. Type of experiment: cell-based. Conditions: Homo sapiens, NCI-H929, 120 h, read-out: IC50, proliferation.
Experiment [5] relates to Revlimid-resistant NCI-H929 R4-10. Nature of the experiment: Proliferation and viability by 7-AAD staining. The experiment is classed as cell-based. The conditions noted are these: Homo sapiens, NCI-H929, 120 h, read-out: IC50, proliferation.
In experiment [6] the test system is Revlimid-resistant NCI-H929 R1-10. Nature of the experiment: Proliferation and viability by 7-AAD staining. Conditions: Homo sapiens, NCI-H929, 120 h, read-out: IC50, proliferation. The experiment is classed as cell-based.
The test system of experiment [7] is normal donor peripheral blood mononuclear cells. Nature of the experiment: Immunoglobulin M and G production. The experiment is classed as cell-based. The conditions noted are these: Homo sapiens, PBMC. The procedure: Immunoglobulin M and G (“IgG and IgM”) production was measured from normal donor peripheral blood mononuclear cells by culturing in the presence of the B cell differentiation factors recombinant human IL-2 (20U/mL), IL-10 (50 ng/mL), IL-15 (10 ng/mL), His-tagged CD40 Ligand (50 ng/mL), polyHistidine mouse IgG1 antibody (5 μg/mL), and ODN 2006-Human TLR9 ligand (10 μg/mL) for 4 days, followed by IL-2, IL-10, IL-15, and IL-6 (50 ng/mL) for an additional 3 days. IgM and IgG were measured by ELISA.

In experiment [8] the test system is megakaryocyte progenitor cells (normal human bone marrows). Nature of the experiment: Megakaryocyte colony formation assay. The experiment is classed as cell-based. The conditions noted are these: Homo sapiens, 14-16 days. The protocol:
Colony formation assay was conducted with normal human bone marrows treated in semi-solid collagen matrix with compound/IL-3/IL-6/Tpo for 14-16 days, and the results are summarized in Table 7.

For experiment [9], the system named is Revlimid-resistant NCI-H929 R3-10. Kind of experiment: Proliferation and viability by 7-AAD staining. The experiment is classed as cell-based. The conditions noted are these: Homo sapiens, NCI-H929, 120 h, read-out: IC50, proliferation.
Experiment [10] deals with WSU-DLCL2 DLBCL xenograft. Nature of the experiment: WSU-DLCL2 DLBCL xenograft model.
Experiment [11] has as its system DoHH2 Follicular Lymphoma xenograft. Kind of experiment: DoHH2 Follicular Lymphoma xenograft model. Type of experiment: in vivo, mouse.
Where [12] appears, read: Bone Marrow ID 0090128, read-out: Immature Colony IC50.
The mark [13] stands for this setting: Bone Marrow ID 0090128, read-out: Intermediate Colony IC50.
The mark [14] stands for this setting: Bone Marrow ID 0090616, read-out: Immature Colony IC50.
The mark [15] stands for this setting: Bone Marrow ID 0090616, read-out: Intermediate Colony IC50.
The mark [16] stands for this setting: Bone Marrow ID 0090714, read-out: Immature Colony IC50.
Where [17] appears, read: Bone Marrow ID 0090714, read-out: Intermediate Colony IC50.
The mark [18] stands for this setting: 30 mg/kg monotherapy, Compound I-S: 84% S-enantiomer, 16% R-enantiomer.
Where [19] appears, read: 30 mg/kg with Rituxan 1 mg/kg, Compound I-S: 84% S-enantiomer, 16% R-enantiomer.
The mark [20] stands for this setting: 40 mg/kg monotherapy, Compound I-S: 91% S-enantiomer, 9% R-enantiomer.

Like-named read-outs stand apart in the source and are kept apart here.

As usually defined, the EC50 is the concentration needed to bring the measured effect to its halfway point. Lower therefore signals greater potency. As to `Nc1cccc2c1C(=O)N(C1CCC(=O)NC1=O)C2=O` (stereo not shown) [Pomalidomide, pomalidomide, reference compound], in experiment [1], the “less CRBN bound to the affinity beads” value is “approximately 50%”. Also, the IC50 was 90 nM in experiment [2]; greater than 30000 nM in experiment [4]; 14000 nM in [5]; greater than 30000 nM in [6]; 63 nM in experiment [7] (read-out: IgG production IC50); 17 nM in [7] (read-out: IgM production IC50). Besides, the IC50 in experiment [8] (setting [12]) was greater than 10000 nM; in experiment [8] (setting [13]), greater than 10000 nM; in experiment [8] (setting [14]), 350 nM; in experiment [8] (setting [15]) it was 1400 nM; in experiment [8] (setting [16]) it was 1000 nM; in [8] (setting [17]) it was greater than 10000 nM. Further, the IC50 in [9] stood at 6300 nM. Also, the response in [3] was half-maximal at 10 nM (EC50).

With `Nc1cccc2c1CN(C1CCC(=O)NC1=O)C2=O` (stereo not shown) [Revlimid, lenalidomide, reference compound], the “Tumor Free Survival on Day 44” value in [10] (30 mg/kg in combination with Rituxan 2 mg/kg iv qw) was 6/9. Besides, the “% TGD ((T − C)/C)” value was 12% in [11] (setting [18]), 52% in [11] (setting [19]) and 17% in experiment [11] (setting [20]). In addition, the “% TGI at D12 (T/C)” value in experiment [11] (setting [18]) is 19%; in experiment [11] (setting [19]), 54%; in [11] (setting [20]), 49%. Moreover, the IC50 in experiment [8] (setting [12]) was 1300 nM; in [8] (setting [13]), greater than 10000 nM; in experiment [8] (setting [14]), 560 nM; in experiment [8] (setting [15]), 1300 nM; in experiment [8] (setting [16]), 410 nM; in experiment [8] (setting [17]), greater than 10000 nM.

As for rituximab [Rituxan, reference compound], the “Tumor Free Survival on Day 44” value in experiment [10] (Rituxan 2 mg/kg iv qw alone) is recorded as 2/10. For the same compound, in experiment [11] (1 mg/kg monotherapy), the “% TGD ((T − C)/C)” value is recorded as 34% and the “% TGI at D12 (T/C)” value stood at 19%.
